We go through 18 molecules from patent US20250257086A1, “EGFR DEGRADATION AGENT” (Beijing Tide Pharmaceutical Co., Ltd., priority 2022, published 2025).

Sequence of Ba/F3 (EGFR^L858R/T790M/C797S) cells (P00533 whole entry T790M/C797S/L858R): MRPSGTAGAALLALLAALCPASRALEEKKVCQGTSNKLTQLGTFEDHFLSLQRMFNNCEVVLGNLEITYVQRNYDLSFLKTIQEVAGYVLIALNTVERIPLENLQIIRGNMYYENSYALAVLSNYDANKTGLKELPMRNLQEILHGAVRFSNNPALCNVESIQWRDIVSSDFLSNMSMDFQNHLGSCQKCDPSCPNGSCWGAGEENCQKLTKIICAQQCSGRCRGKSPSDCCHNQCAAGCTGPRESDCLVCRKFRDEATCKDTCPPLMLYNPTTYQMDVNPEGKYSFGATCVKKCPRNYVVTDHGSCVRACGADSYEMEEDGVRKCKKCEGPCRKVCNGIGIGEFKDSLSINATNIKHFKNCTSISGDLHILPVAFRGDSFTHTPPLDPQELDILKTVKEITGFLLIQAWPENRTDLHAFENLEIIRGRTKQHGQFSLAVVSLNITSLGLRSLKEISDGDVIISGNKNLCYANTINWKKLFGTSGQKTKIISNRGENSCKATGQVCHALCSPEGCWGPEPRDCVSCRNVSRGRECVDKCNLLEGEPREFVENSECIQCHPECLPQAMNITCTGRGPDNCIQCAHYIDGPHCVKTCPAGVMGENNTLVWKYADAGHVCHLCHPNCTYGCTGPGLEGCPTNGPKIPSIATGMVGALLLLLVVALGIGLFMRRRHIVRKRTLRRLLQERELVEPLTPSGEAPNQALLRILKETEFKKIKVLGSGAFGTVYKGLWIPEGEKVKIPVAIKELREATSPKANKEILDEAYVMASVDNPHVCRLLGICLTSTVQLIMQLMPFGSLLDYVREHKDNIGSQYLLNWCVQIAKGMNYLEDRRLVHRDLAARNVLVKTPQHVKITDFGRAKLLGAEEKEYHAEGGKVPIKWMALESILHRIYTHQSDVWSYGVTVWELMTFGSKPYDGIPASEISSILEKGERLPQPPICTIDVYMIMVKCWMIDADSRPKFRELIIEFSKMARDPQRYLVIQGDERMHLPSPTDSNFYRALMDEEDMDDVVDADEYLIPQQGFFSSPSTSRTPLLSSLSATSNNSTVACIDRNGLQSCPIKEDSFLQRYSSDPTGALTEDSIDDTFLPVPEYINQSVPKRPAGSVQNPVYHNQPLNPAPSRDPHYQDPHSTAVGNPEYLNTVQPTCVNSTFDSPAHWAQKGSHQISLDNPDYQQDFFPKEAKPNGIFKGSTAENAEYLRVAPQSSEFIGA

The test deals with Ba/F3 (EGFR^L858R/T790M/C797S) cells (Homo sapiens, UniProt P00533, T790M/C797S/L858R, cells depend on it). In words: Antiproliferative activity on Ba/F3 (EGFR L858R/T790M/C797S) cells (CTG). The class given is cell-based. The note with it: 72h incubation, CTG luminescence, read-out: IC50 (nM), antiproliferative activity. On the procedure:
30 nL of the compound dilution was added to a 384-well plate by Echo (Labcyte, Echo550).
The percent inhibition rate (% inhibition) was calculated by the following formula
[formula] • LUMcmpd: Luminescence value of assay compound. • LUMpositive: Average LUM value of positive drug with a concentration of 10 μM. • LUMvehicle: Average LUM value of negative control group without drug treatment.
The nonlinear regression curve (dose response-variable slope) between the value of inhibition rate (%) and the logarithm of compound concentration was fitted with graphpad prism 8.0, the effect dose curve of compound was drawn, and the IC50 value was calculated.
Y=Bottom+(Top−Bottom)/(1+10^((Log IC50−X)*HillSlope)) • X-axis: logarithm of compound concentration; Y axis: inhibition rate (% inhibition).
For `COc1cc(N2CCC(N3CCN(CCCC#Cc4cccc5c4CN(C4CCC(=O)NC4=O)C5=O)CC3)CC2)c(NC(=O)/C=C/C(F)(F)F)cc1Nc1ncc(Cl)c(Nc2ccccc2P(C)(C)=O)n1` (stereo not drawn) [Compound D596, N-(5-((5-chloro-4-((2-(dimethylphosphoryl)phenyl)amino)pyrimidin-2-yl)amino)-2-(4-(4-(5-(2-(2,6-dioxopiperidin-3-yl)-1-oxoisoindolin-4-yl)pent-4-yn-1-yl)piperazin-1-yl)piperidin-1-yl)-4-methoxyphenyl)-4,4,4-trifluorobut-2-enamide], the GI50 amounted to 31.7 nM. `COc1cc(N2CCC(N3CCN(CCCC#Cc4cccc5c4CN(C4CCC(=O)NC4=O)C5=O)CC3)CC2)c(NC(=O)/C=C/c2c[nH]cn2)cc1Nc1ncc(Cl)c(Nc2ccccc2P(C)(C)=O)n1` (stereo not drawn) [Compound D581, N-(5-((5-chloro-4-((2-(dimethylphosphoryl)phenyl)amino)pyrimidin-2-yl)amino)-2-(4-(4-(5-(2-(2,6-dioxopiperidin-3-yl)-1-oxoisoindolin-4-yl)pent-4-yn-1-yl)piperazin-1-yl)piperidin-1-yl)-4-methoxyphenyl)-3-(1H-imidazol-4-yl)acrylamide]: the GI50 is 2600 nM. Next, `C=C(F)C(=O)Nc1cc(Nc2ncc(Br)c(Nc3ccc4nccnc4c3NS(C)(=O)=O)n2)c(OC)cc1N1CCC(N2CCN(CCCC#Cc3cccc4c3CN(C3CCC(=O)NC3=O)C4=O)CC2)CC1` (stereo not drawn) [Compound D933]: 12.3 nM; `C=CC(=O)Nc1cc(Nc2ncc(Br)c(Nc3ccccc3P(C)(C)=O)n2)c(OC)cc1N1CCC(N2CCN(CCCCC#Cc3cccc4c3CN(C3CCC(=O)NC3=O)C4=O)CC2)CC1` (stereo not drawn) [Compound D479, N-(5-((5-bromo-4-((2-(dimethylphosphoryl)phenyl)amino)pyrimidin-2-yl)amino)-2-(4-(4-(6-(2-(2,6-dioxopiperidin-3-yl)-1-oxoisoindolin-4-yl)hex-5-yn-1-yl)piperazin-1-yl)piperidin-1-yl)-4-methoxyphenyl)acrylamide]: 86.8 nM; `COc1cc(N2CCC(N3CCN(CCCC#Cc4cccc5c4CN(C4CCC(=O)NC4=O)C5=O)CC3)CC2)c(NC(=O)/C=C/C(F)(F)F)cc1Nc1ncc(Cl)c(Nc2ccc3nccnc3c2P(C)(C)=O)n1` (stereo not drawn) [Compound D673, (E)-N-(5-((5-chloro-4-((5-(dimethylphosphoryl)quinoxalin-6-yl)amino)pyrimidin-2-yl)amino)-2-(4-(4-(5-(2-(2,6-dioxopiperidin-3-yl)-1-oxoisoindolin-4-yl)pent-4-yn-1-yl)piperazin-1-yl)piperidin-1-yl)-4-methoxyphenyl)-4,4,4-trifluorobut-2-enamide]: 20.6 nM. As for `COc1cc(N2CCC(N3CCN(CCCCC#Cc4cccc5c4CN(C4CCC(=O)NC4=O)C5=O)CC3)CC2)c(NC(=O)/C=C/C(F)(F)F)cc1Nc1ncc(Cl)c(Nc2ccccc2P(C)(C)=O)n1` (stereo not drawn) [Compound D620, N-(5-((5-chloro-4-((2-(dimethylphosphoryl)phenyl)amino)pyrimidin-2-yl)amino)-2-(4-(4-(6-(2-(2,6-dioxopiperidin-3-yl)-1-oxoisoindolin-4-yl)hex-5-yn-1-yl)piperazin-1-yl)piperidin-1-yl)-4-methoxyphenyl)-4,4,4-trifluorobut-2-enamide], the figure is 46.7 nM; as for `CC#CC(=O)Nc1cc(Nc2ncc(Cl)c(Nc3ccccc3P(C)(C)=O)n2)c(OC)cc1N1CCC(N2CCN(CCCCCC#Cc3cccc4c3CN(C3CCC(=O)NC3=O)C4=O)CC2)CC1` (stereo not drawn) [Compound D560, N-(5-((5-chloro-4-((2-(dimethylphosphoryl)phenyl)amino)pyrimidin-2-yl)amino)-2-(4-(4-(7-(2-(2,6-dioxopiperidin-3-yl)-1-oxoisoindolin-4-yl)hept-6-yn-1-yl)piperazin-1-yl)piperidin-1-yl)-4-methoxyphenyl)but-2-ynamide], 112 nM; as for `CC#CC(=O)Nc1cc(Nc2ncc(Cl)c(Nc3ccc4nccnc4c3P(C)(C)=O)n2)c(OC)cc1N1CCC(N2CCN(CCCC#Cc3cccc4c3CN(C3CCC(=O)NC3=O)C4=O)CC2)CC1` (stereo not drawn) [Compound D672, N-(5-((5-chloro-4-((5-(dimethylphosphoryl)quinoxalin-6-yl)amino)pyrimidin-2-yl)amino)-2-(4-(4-(5-(2-(2,6-dioxopiperidin-3-yl)-1-oxoisoindolin-4-yl)pent-4-yn-1-yl)piperazin-1-yl)piperidin-1-yl)-4-methoxyphenyl)but-2-ynamide], 15.1 nM. Turning to `C=C(F)C(=O)Nc1cc(Nc2ncc(C(F)(F)F)c(Nc3ccccc3P(C)(C)=O)n2)c(OCC(F)(F)F)cc1N1CCC(N2CCN(CCCC#Cc3cccc4c3CN(C3CCC(=O)NC3=O)C4=O)CC2)CC1` (stereo not drawn) [Compound D870, N-(5-((4-((2-(dimethylphosphoryl)phenyl)amino)-5-(trifluoromethyl)pyrimidin-2-yl)amino)-2-(4-(4-(5-(2-(2,6-dioxopiperidin-3-yl)-1-oxoisoindolin-4-yl)pent-4-yn-1-yl)piperazin-1-yl)piperidin-1-yl)-4-(2,2,2-trifluoroethoxy)phenyl)-2-fluoroacrylamide], the GI50 turned out to be 8.87 nM. As for `C=CC(=O)Nc1cc(Nc2ncc(Cl)c(Nc3ccc4c(c3P(C)(C)=O)OCCO4)n2)c(OC)cc1N1CCC(N2CCN(CCCC#Cc3cccc4c3CN(C3CCC(=O)NC3=O)C4=O)CC2)CC1` (stereo not drawn) [Compound D683], the figure is 22.3 nM; as for `C=C(F)C(=O)Nc1cc(Nc2ncc(C(F)(F)F)c(Nc3ccccc3P(C)(C)=O)n2)c(OC)cc1N1CCC(N2CCN(CCCC#Cc3cccc4c3CN(C3CCC(=O)NC3=O)C4=O)CC2)CC1` (stereo not drawn) [Compound D746, N-(5-((4-((2-(dimethylphosphoryl)phenyl)amino)-5-(trifluoromethyl)pyrimidin-2-yl)amino)-2-(4-(4-(5-(2-(2,6-dioxopiperidin-3-yl)-1-oxoisoindolin-4-yl)pent-4-yn-1-yl)piperazin-1-yl)piperidin-1-yl)-4-methoxyphenyl)-2-fluoroacrylamide], 3.36 nM.

Turning to `C=C(F)C(=O)Nc1cc(Nc2ncc(Cl)c(Nc3ccccc3P(C)(C)=O)n2)ccc1N1CCC(N2CCN(CCCC#Cc3cccc4c3CN(C3CCC(=O)NC3=O)C4=O)CC2)CC1` (stereo not drawn) [Compound D666, N-(5-((5-chloro-4-((2-(dimethylphosphoryl)phenyl)amino)pyrimidin-2-yl)amino)-2-(4-(4-(5-(2-(2,6-dioxopiperidin-3-yl)-1-oxoisoindolin-4-yl)pent-4-yn-1-yl)piperazin-1-yl)piperidin-1-yl)phenyl)-2-fluoroacrylamide], the GI50 was 13.7 nM.

Turning to `CCCC#CC(=O)Nc1cc(Nc2ncc(Cl)c(Nc3ccccc3P(C)(C)=O)n2)ccc1N1CCC(N2CCN(CCCC#Cc3cccc4c3CN(C3CCC(=O)NC3=O)C4=O)CC2)CC1` (stereo not drawn) [Compound D668, N-(5-((5-chloro-4-((2-(dimethylphosphoryl)phenyl)amino)pyrimidin-2-yl)amino)-2-(4-(4-(5-(2-(2,6-dioxopiperidin-3-yl)-1-oxoisoindolin-4-yl)pent-4-yn-1-yl)piperazin-1-yl)piperidin-1-yl)phenyl)hex-2-ynamide], the GI50 is 21.2 nM. Consider `COc1cc(N2CCC(N3CCN(CCCC#Cc4cccc5c4CN(C4CCC(=O)NC4=O)C5=O)CC3)CC2)c(C)cc1Nc1ncc(Br)c(Nc2ccc3nccnc3c2NS(C)(=O)=O)n1` (stereo not drawn) [Compound D741, N-(6-((5-bromo-2-((4-(4-(4-(5-(2-(2,6-dioxopiperidin-3-yl)-1-oxoisoindolin-4-yl)pent-4-yn-1-yl)piperazin-1-yl)piperidin-1-yl)-2-methoxy-5-methylphenyl)amino)pyrimidin-4-yl)amino)quinoxalin-5-yl)methanesulfonamide], for which the GI50 worked out at 10.2 nM.

For `COc1cc(N2CCC(N3CCN(CCCC#Cc4cccc5c4CN(C4CCC(=O)NC4=O)C5=O)CC3)CC2)c(NC(=O)/C=C/c2cccs2)cc1Nc1ncc(Cl)c(Nc2ccccc2P(C)(C)=O)n1` (stereo not drawn) [Compound D583, (E)-N-(5-((5-chloro-4-((2-(dimethylphosphoryl)phenyl)amino)pyrimidin-2-yl)amino)-2-(4-(4-(5-(2-(2,6-dioxopiperidin-3-yl)-1-oxoisoindolin-4-yl)pent-4-yn-1-yl)piperazin-1-yl)piperidin-1-yl)-4-methoxyphenyl)-3-(thiophen-2-yl)acrylamide], the GI50 amounted to 45.6 nM. Regarding `COc1cc(N2CCC(N3CCN(CCCCCC#Cc4cccc5c4CN(C4CCC(=O)NC4=O)C5=O)CC3)CC2)c(NC(=O)/C=C/CN(C)C)cc1Nc1ncc(Br)c(Nc2ccccc2P(C)(C)=O)n1` (stereo not drawn) [Compound D563, N-(5-((5-bromo-4-((2-(dimethylphosphoryl)phenyl)amino)pyrimidin-2-yl)amino)-2-(4-(4-(7-(2-(2,6-dioxopiperidin-3-yl)-1-oxoisoindolin-4-yl)hept-6-yn-1-yl)piperazin-1-yl)piperidin-1-yl)-4-dimethoxyphenyl)-4-(dimethylamino)but-2-enamide], the GI50 was 306 nM.

As for `C=CC(=O)Nc1cc(Nc2ncc(Br)c(Nc3ccccc3P(C)(C)=O)n2)c(OC)cc1N1CCC(N2CCN(C)CC2)CC1` [Comparative compound L495, reference compound], the GI50 was found to be 3740 nM. As for `C=C(F)C(=O)Nc1cc(Nc2ncc(Cl)c(Nc3ccccc3P(C)(C)=O)n2)c(OC)cc1N1CCC(N2CCN(CCCCC#Cc3cccc4c3CN(C3CCC(=O)NC3=O)C4=O)CC2)CC1` (stereo not drawn) [Compound D553, N-(5-((5-chloro-4-((2-(dimethylphosphoryl)phenyl)amino)pyrimidin-2-yl)amino)-2-(4-(4-(6-(2-(2,6-dioxopiperidin-3-yl)-1-oxoisoindolin-4-yl)hex-5-yn-1-yl)piperazin-1-yl)piperidin-1-yl)-4-methoxyphenyl)-2-fluoroacrylamide], the figure is 49.5 nM.
